Reference: patent US11458189B2, “Cytoprotective drugs” (BALMES TRANSPLANTATION, priority 2017, dated 2022)
Starred links: 1 amine or outer side, 2 acyl side, 3 side chain; linkers in the order of their positions; H or OH if unused. Positions of bridges follow the written chain, without caps; N, C: chain ends. Non-standard residues stand in square brackets, D forms with d. Residues, ends and D or L forms follow the SMILES beside them. ξ: configuration not given here. *: point of attachment. hTyr(3S-OH,4S-OH,3'-OSO3H) = N[C@H](C(=O)O)[C@H](O)[C@@H](O)c1ccc(O)c(OS(=O)(=O)O)c1; pTerphenylCO(4''-OnC5H11) = CCCCCOc1ccc(-c2ccc(-c3ccc(C(=O)*)cc3)cc2)cc1; Orn(4R-OH,5R-OH) = O=C([C@H](C[C@@H](O)[C@@H](O)N[*:3])N[*:1])[*:2]; hTyr(3S-OH,4S-OH) = N[C@H](C(=O)O)[C@H](O)[C@@H](O)c1ccc(O)cc1; Pro(3S-OH,4S-Me) = C[C@H]1CN[C@H](C(=O)O)[C@H]1O; X1 = CCCCCOc1ccc(-c2cc(-c3ccc(C(=O)*)cc3)no2)cc1; Gln(3R-OH) = NC(=O)C[C@@H](O)[C@H](N)C(=O)O; ξPro(4R-OH) = O=C(O)C1C[C@@H](O)CN1; Hyp = O=C(O)[C@@H]1C[C@@H](O)CN1

Tested on: Bovine Brain Microvascular Endothelial Cells (BBMEC)
Assay: Oxygen and glucose deprivation followed by replenishment, cell survival (calcein AM), BBMEC
Format: cell-based
Method: Anidulafungin and micafungin were tested on Human Renal Glomerular Endothelial Cells (HRGEC, Innoprot P10665), on Human Renal Proximal Tubular Epithelial Cells (HRPTEpiC, Innoprot P10662), on Human Astrocytes (HA, caltag SC-1800), on Human Cardiac Microvascular Endothelial Cells (HCMEC, Caltag SC-6000), on Human Hepatic Sinusoidal Endothelial Cells (HHSEC, Caltag SC-5000), on Rat Primary Kidney Glomerular Endothelial cells (Cellbiologics, RN-6014G) and on Bovine Brain Microvascular Endothelial Cells (BBMEC, Caltag SC-B100).
In a first phase, these isolated, purified and cryopreserved cells are thawed and multiplied according to the supplier's recommendations in T75 or T175 flasks pre-coated with 2 μg of fibronectin/[…] (CORNING) for HRGEC, HCMEC, HHSEC and BBMEC, or 2 μg poly-L-lysin/cm^2 (Caltag SC-0403) for HRPTEpiC and HA, or 15 mL/flask 175 cm^2 gelatin-based solution (Cellbiologics) in the presence of endothelial cell supplemented growth medium ECM (P60104, INNOPROT, Caltag, SC-1001) for HRGEC, HCMEC, HHSEC, RPKGEC or BBMEC, or astrocyte cell supplemented growth medium AM (Caltag SC-1801) for HA or epithelial cell supplemented growth medium EpiCM (P60106, INNOPROT) for HRPTEpiC, at 37° C. under 5% CO2 and saturated humidity until their confluency. They are then harvested by trypsinization according to the method described by the supplier for exactly 5 minutes and then reseeded in new flasks a maximum of three times.
To carry out the oxygen and glucose deprivation test followed by their replenishment, the cells will be seeded in 96-well black plates with transparent flat bottom (GREINER). Once a sufficient number of cells has been obtained to allow seeding of 2000 to 15000 cells per well of 96-well plates depending on the cell type, the cells are seeded in these 96-well plates previously coated with an extracellular matrix as listed above for the flasks. The cells are cultured for 5 to 8 days according to the cell type, in the presence of the same growth medium as in the flask as described above except for HRGEC and HRPTEpiC for which DMEM (DUTSCHER) with 1 g/L of supplemented glucose is used, at 37° C. under 5% CO2 and saturated humidity to obtain confluency.
On the first day of oxygen and glucose deprivation, (5th, 6th, 7th or 8th day of culture), the culture conditions are drastically changed. The medium of all plates is removed and replaced by DMEM (DUTSCHER) medium without glucose and supplemented only with 1% penicillin-streptomycin (DUTSCHER). Anidulafungin or micafungin dissolved in dimethyl sulfoxide (DMSO) is then added to each well at the desired concentration, resulting in a maximum of 1% DMSO, and the plates are placed under hypoxia at <1% 02 and 5% CO2 at 37° C. for 24 hours of culture. Each compound was tested in a concentration range.
After 24 hours, the growth medium is changed and replaced by a richer medium, DMEM (DUTSCHER) at 1 g/L glucose and 2% FBS (INNOPROT) and 1% penicillin-streptomycin (DUTSCHER). These media will have been pre-equilibrated at 37° C. in advance. The cells are then returned to culture at 37° C. under 20% 02 and 5% CO2 for 22h.
After 22 hours of reoxygenation, the potential protective effect of anidulafungin or micafungin is measured by a cell viability test using calcein AM (CORNING), which is a dye substrate. The calcein AM can easily cross the cell membrane of the viable cells. The AM ester groups mask the part of the molecule that chelates calcium. Once inside the cells, the (non-fluorescent) calcein AM is hydrolyzed to (fluorescent) calcein by endogenous esterases. The resulting calcein molecule binds to calcium inside the cell and remains trapped inside the cell. These molecules emit strong green fluorescence when subjected to […] of a particular wavelength (495 nm). Since dead cells lack esterase activity, only living cells are labelled.
This cell viability test is performed in two steps. […]

[1] = [Anidulafungin] log μM 0.1760913
[2] = [Anidulafungin] log μM −0.1249387
[3] = [Anidulafungin] log μM −0.30103
[4] = [Anidulafungin] log μM −0.5228788

SMILES: CCCCCOc1ccc(-c2cc(-c3ccc(C(=O)N[C@H]4C[C@@H](O)[C@@H](O)NC(=O)[C@@H]5[C@@H](O)[C@@H](C)CN5C(=O)[C@H]([C@H](O)CC(N)=O)NC(=O)[C@H]([C@H](O)[C@@H](O)c5ccc(O)c(OS(=O)(=O)O)c5)NC(=O)[C@@H]5C[C@@H](O)CN5C(=O)[C@H]([C@@H](C)O)NC4=O)cc3)no2)cc1 [Micafungin, {5-[(1S,2S)-2-[(3S,6S,9S,11R,15S,18S,20R,21R,24S,25S,26S)-3-[(1R)-2-carbamoyl-1-hydroxyethyl]-11,20,21,25-tetrahydroxy-15-[(1R)-1-hydroxyethyl]-26-methyl-2,5,8,14,17,23-hexaoxo-18-[(4-{5-[4-(pentyloxy)phenyl]-1,2-oxazol-3-yl}benzene)amido]-1,4,7,13,16,22-hexaazatricyclo[22.3.0.0]heptacosan-6-yl]-1,2-dihydroxyethyl]-2-hydroxyphenyl}oxidanesulfonic acid] (X1-[Orn(4R-OH,5R-OH)]T[Hyp][hTyr(3S-OH,4S-OH,3'-OSO3H)][Gln(3R-OH)][Pro(3S-OH,4S-Me)]; lactam 1-C)
- Globalfluo assay 1 ([Micafungin] log μM 0): 1369504 arbitrary units
- Globalfluo assay 2 ([Micafungin] log μM 0): 1354112 arbitrary units
- Globalfluo assay 3 ([Micafungin] log μM 0): 1230715 arbitrary units
- Mean globalfluo ([Micafungin] log μM 0): 1318110 arbitrary units
- Survival rate (%) ([Micafungin] log μM 0): 23%
- Globalfluo assay 1 ([Micafungin] log μM 0.4771213): 2106751 arbitrary units
- Globalfluo assay 2 ([Micafungin] log μM 0.4771213): 1655153 arbitrary units
- Globalfluo assay 3 ([Micafungin] log μM 0.4771213): 1618365 arbitrary units
- Mean globalfluo ([Micafungin] log μM 0.4771213): 1793423 arbitrary units
- Survival rate (%) ([Micafungin] log μM 0.4771213): 46%
- Globalfluo assay 1 ([Micafungin] log μM 0.7781513): 1732851 arbitrary units
- Globalfluo assay 2 ([Micafungin] log μM 0.7781513): 1742799 arbitrary units
- Globalfluo assay 3 ([Micafungin] log μM 0.7781513): 1796080 arbitrary units
- Mean globalfluo ([Micafungin] log μM 0.7781513): 1757243 arbitrary units
- Survival rate (%) ([Micafungin] log μM 0.7781513): 44%
- Globalfluo assay 1 ([Micafungin] log μM 0.90309): 3787727 arbitrary units
- Globalfluo assay 2 ([Micafungin] log μM 0.90309): 1942995 arbitrary units
- Globalfluo assay 3 ([Micafungin] log μM 0.90309): 2729816 arbitrary units
- Mean globalfluo ([Micafungin] log μM 0.90309): 2820179 arbitrary units
- Survival rate (%) ([Micafungin] log μM 0.90309): 96%
- Globalfluo assay 1 ([Micafungin] log μM 1): 3519337 arbitrary units
- Globalfluo assay 2 ([Micafungin] log μM 1): 3058877 arbitrary units
- Globalfluo assay 3 ([Micafungin] log μM 1): 3179364 arbitrary units
- Mean globalfluo ([Micafungin] log μM 1): 3252526 arbitrary units
- Survival rate (%) ([Micafungin] log μM 1): 117%
- Globalfluo assay 1 ([Micafungin] log μM 1.079181): 2865371 arbitrary units
- Globalfluo assay 2 ([Micafungin] log μM 1.079181): 2913567 arbitrary units
- Globalfluo assay 3 ([Micafungin] log μM 1.079181): 3561196 arbitrary units
- Mean globalfluo ([Micafungin] log μM 1.079181): 3113378 arbitrary units
- Survival rate (%) ([Micafungin] log μM 1.079181): 110%
- Globalfluo assay 1 ([Micafungin] log μM 1.176091): 2994828 arbitrary units
- Globalfluo assay 2 ([Micafungin] log μM 1.176091): 3496204 arbitrary units
- Globalfluo assay 3 ([Micafungin] log μM 1.176091): 3106542 arbitrary units
- Mean globalfluo ([Micafungin] log μM 1.176091): 3199191 arbitrary units
- Survival rate (%) ([Micafungin] log μM 1.176091): 114%
- Globalfluo assay 1 ([Micafungin] log μM 1.30103): 3526958 arbitrary units
- Globalfluo assay 2 ([Micafungin] log μM 1.30103): 3025877 arbitrary units
- Globalfluo assay 3 ([Micafungin] log μM 1.30103): 3586726 arbitrary units
- Mean globalfluo ([Micafungin] log μM 1.30103): 3379854 arbitrary units
- Survival rate (%) ([Micafungin] log μM 1.30103): 123%
- Globalfluo assay 1 ([Micafungin] log μM 1.477121): 2506989 arbitrary units
- Globalfluo assay 2 ([Micafungin] log μM 1.477121): 2361926 arbitrary units
- Globalfluo assay 3 ([Micafungin] log μM 1.477121): 2557219 arbitrary units
- Mean globalfluo ([Micafungin] log μM 1.477121): 2475378 arbitrary units
- Survival rate (%) ([Micafungin] log μM 1.477121): 79%
- Globalfluo assay 1 ([Micafungin] log μM −0.5228788): 1907644 arbitrary units
- Globalfluo assay 2 ([Micafungin] log μM −0.5228788): 993296 arbitrary units
- Globalfluo assay 3 ([Micafungin] log μM −0.5228788): 1867099 arbitrary units
- Mean globalfluo ([Micafungin] log μM −0.5228788): 1589346 arbitrary units
- Survival rate (%) ([Micafungin] log μM −0.5228788): 36%
- Globalfluo assay 1 ([Micafungin] log μM −1): 1108584 arbitrary units
- Globalfluo assay 2 ([Micafungin] log μM −1): 1249769 arbitrary units
- Globalfluo assay 3 ([Micafungin] log μM −1): 1224251 arbitrary units
- Mean globalfluo ([Micafungin] log μM −1): 1194201 arbitrary units
- Survival rate (%) ([Micafungin] log μM −1): 17%
- Globalfluo assay 1 ([Micafungin] log μM −2): 1778372 arbitrary units
- Globalfluo assay 2 ([Micafungin] log μM −2): 817005 arbitrary units
- Globalfluo assay 3 ([Micafungin] log μM −2): 1173090 arbitrary units
- Mean globalfluo ([Micafungin] log μM −2): 1256156 arbitrary units
- Survival rate (%) ([Micafungin] log μM −2): 20%

SMILES: CCCCCOc1ccc(-c2ccc(-c3ccc(C(=O)N[C@H]4C[C@@H](O)[C@@H](O)NC(=O)[C@@H]5[C@@H](O)[C@@H](C)CN5C(=O)[C@H]([C@@H](C)O)NC(=O)[C@H]([C@H](O)[C@@H](O)c5ccc(O)cc5)NC(=O)C5C[C@@H](O)CN5C(=O)[C@H]([C@@H](C)O)NC4=O)cc3)cc2)cc1 (stereo partly drawn) [Anidulafungin] ({pTerphenylCO(4''-OnC5H11)}-[Orn(4R-OH,5R-OH)]T[ξPro(4R-OH)][hTyr(3S-OH,4S-OH)]T[Pro(3S-OH,4S-Me)]; lactam 1-C)
- Globalfluo assay 1 ([Anidulafungin] log μM 0): 941644 arbitrary units
- Globalfluo assay 2 ([Anidulafungin] log μM 0): 1153883 arbitrary units
- Globalfluo assay 3 ([Anidulafungin] log μM 0): 1374585 arbitrary units
- Mean globalfluo ([Anidulafungin] log μM 0): 1156704 arbitrary units
- Survival rate (%) ([Anidulafungin] log μM 0): 30%
- Globalfluo assay 1 [1]: 2348228 arbitrary units
- Globalfluo assay 2 [1]: 1617378 arbitrary units
- Globalfluo assay 3 [1]: 1887981 arbitrary units
- Mean globalfluo [1]: 1951196 arbitrary units
- Survival rate (%) [1]: 77%
- Globalfluo assay 1 ([Anidulafungin] log μM 0.30103): 2455048 arbitrary units
- Globalfluo assay 2 ([Anidulafungin] log μM 0.30103): 2409886 arbitrary units
- Globalfluo assay 3 ([Anidulafungin] log μM 0.30103): 4507112 arbitrary units
- Mean globalfluo ([Anidulafungin] log μM 0.30103): 3124015 arbitrary units
- Survival rate (%) ([Anidulafungin] log μM 0.30103): 145%
- Globalfluo assay 1 ([Anidulafungin] log μM 0.60206): 4710709 arbitrary units
- Globalfluo assay 2 ([Anidulafungin] log μM 0.60206): 5014887 arbitrary units
- Globalfluo assay 3 ([Anidulafungin] log μM 0.60206): 4901610 arbitrary units
- Mean globalfluo ([Anidulafungin] log μM 0.60206): 4875735 arbitrary units
- Survival rate (%) ([Anidulafungin] log μM 0.60206): 248%
- Globalfluo assay 1 [2]: 1165160 arbitrary units
- Globalfluo assay 2 [2]: 919370 arbitrary units
- Globalfluo assay 3 [2]: 944308 arbitrary units
- Mean globalfluo [2]: 1009613 arbitrary units
- Survival rate (%) [2]: 22%
- Globalfluo assay 1 [3]: 744687 arbitrary units
- Globalfluo assay 2 [3]: 1045135 arbitrary units
- Globalfluo assay 3 [3]: 678965 arbitrary units
- Mean globalfluo [3]: 822929 arbitrary units
- Survival rate (%) [3]: 11%
- Globalfluo assay 1 [4]: 800327 arbitrary units
- Globalfluo assay 2 [4]: 708910 arbitrary units
- Globalfluo assay 3 [4]: 845212 arbitrary units
- Mean globalfluo [4]: 784816 arbitrary units
- Survival rate (%) [4]: 8%
- Globalfluo assay 1 ([Anidulafungin] log μM −1): 649447 arbitrary units
- Globalfluo assay 2 ([Anidulafungin] log μM −1): 1235676 arbitrary units
- Globalfluo assay 3 ([Anidulafungin] log μM −1): 807779 arbitrary units
- Mean globalfluo ([Anidulafungin] log μM −1): 897634 arbitrary units
- Survival rate (%) ([Anidulafungin] log μM −1): 15%
- Globalfluo assay 1 ([Anidulafungin] log μM −2): 664396 arbitrary units
- Globalfluo assay 2 ([Anidulafungin] log μM −2): 532817 arbitrary units
- Globalfluo assay 3 ([Anidulafungin] log μM −2): 541230 arbitrary units
- Mean globalfluo ([Anidulafungin] log μM −2): 579481 arbitrary units
- Survival rate (%) ([Anidulafungin] log μM −2): −4%
